Measured values: US20130267547A1, “PRODRUGS UTILIZING A TRANSPORTER-DIRECTED UPTAKE MECHANISM” (VIRGINIA COMMONWEALTH UNIVERSITY, priority 2010, published 2013)
One block for each compound: values may come before it.

Experiments:
BeWo cells [1] = assay: Uptake of 3H-lopinavir, 3H-succinyl-lopinavir and 3H-carnitine-succinyl-lopinavir by BeWo cells, with and without transport inhibitors; conditions: for inhibition at 100 µM / inhibition at 250 µM: Homo sapiens, BeWo, read-out: Extent of Uptake Inhibition
Experimental: FIG. 10. […] BeWo cells (passage 38) were incubated with the compounds for 10 minutes at 37° C. or 4° C. in Dulbecco's phosphate buffered saline containing 0.05% bovine serum albumin. After incubation, the cells were washed with the cold buffer (lacking the compounds), and compounds were extracted from the cells into methanol followed by liquid scintillation analysis.
Specifically, bromosulfophthalein (BSP) is an inhibitor of several organic anion transporters (OATs; gene family SLC22A), as well as organic anion transporting polypeptides (OATPs; gene family SLCO). […] Finally, taurocholate is a classic substrate for bile salt transporters, including the sodium-dependent taurocholate transporter (NTCP; SLC10A1), the apical bile salt transporter (ASBT; SLC10A2), and certain OATPs.
The BeWo cell line is originally derived from a human choriocarcinoma. The BeWo cell line (Schwartz clone; passage 30) was a gift. BeWo cells in these studies is used between passages 30-70. BeWo cells are cultured in high glucose Dulbecco's modified Eagle's medium (DMEM) supplemented with 10% heat inactivated fetal bovine serum (FBS).

P-glycoprotein = conditions: mice; cited from earlier work
plasma esterases = assay: Stability in human plasma; format: in vitro ADME
Experimental: The stability of SLPV was determined by incubating SLPV (20 μM) in human plasma from one healthy adult at 37° C. for 18 hours.

[2] = tested on: fresh human placental villous tissue; assay: Incubation of DGLPV with fresh human placental villous tissue (HPLC of medium and tissue); format: in vitro ADME
Experimental: DGLPV was synthesized as described above. The amount of DGLPV in the media originally containing 100 uM DGLPV was measured using HPLC as described above, and again after a 30 minute incubation with fresh human placental villous tissue in the same media.
To confirm that the DGLPV was taken up by the tissue and hydrolyzed therein, HPLC was used to measure the amount of free LPV present in the tissue.

BeWo cells [3] = assay: Uptake of non-radiolabelled LPV esters in BeWo cells (LC-MS/MS); format: cell-based, human; conditions: for Rank order of uptake: non-radiolabelled esters
Experimental: (§1) NMR spectroscopy was performed on the compounds including GLPV (FIG. 14A). […] An LC-MS/MS assay was developed and validated to determine concentrations of the novel compounds in biological matrices and fluids, as shown in FIG. 14B.

[4] = Hydrolysis of LPV esters in vivo in rats
Experimental: as §1

[5] = tested on: human primary cytotrophoblast cells; assay: Uptake of 3H-SLPV and 3H-LPV by primary cytotrophoblast cells; format: cell-based
From the text: We also isolated primary cytotrophoblast cells from one term (39 weeks gestation) placenta delivered by cesarean section. […] (FIG. 7).

SMILES: Cc1cccc(C)c1OCC(=O)N[C@@H](Cc1ccccc1)[C@@H](O)C[C@H](Cc1ccccc1)NC(=O)[C@H](C(C)C)N1CCCNC1=O [LPV, lopinavir, reference compound]
Extent of Uptake Inhibition (BeWo cells [1]; Cold (4° C.), BeWo cells): 10%
inhibition at 100 µM (BeWo cells [1]): 9%
inhibition at 250 µM (BeWo cells [1]): 7%

SMILES: CC(=O)O[C@H]1C(=O)[C@@]2(C)[C@H]([C@H](OC(=O)c3ccccc3)[C@]3(O)C[C@H](OC(=O)[C@H](O)[C@@H](NC(=O)c4ccccc4)c4ccccc4)C(C)=C1C3(C)C)[C@]1(OC(C)=O)CO[C@@H]1C[C@@H]2O [paclitaxel]
Fold more drug entering P-glycoprotein deficient Abcb1a−/−/1b−/− fetuses than wild type fetuses (P-glycoprotein): 16 fold

half-life (plasma esterases; human, plasma, preliminary data, read-out: Plasma hydrolysis half-life (converted)): ~2 h
Amount of DGLPV in the medium after incubation with tissue ([2]; 100 uM DGLPV, 30 minute incubation): decrease in DGLPV in the medium
Hydrolysis in the tissue to release free lopinavir, in words ([2]; human placental villous tissue): can also be hydrolyzed in the tissue
Temperature dependence of uptake, in words (BeWo cells [3]): temperature dependent
Rank order of uptake (BeWo cells [3]): GLPV>SLPV>DGLPV
Hydrolysis in vivo, in words [4]: capable of being hydrolyzed in vivo
SMILES: Cc1cccc(C)c1OCC(=O)NC(Cc1ccccc1)[C@H](CC(Cc1ccccc1)NC(=O)[C@H](C(C)C)N1CCCNC1=O)OC(=O)COCC(=O)O (some centres unmarked) [DGLPV, Diglycolic-Lopinavir]
Transport into human tissues, in words ([2]; human placental villous tissue): can also be transported into human tissues

SMILES: Cc1cccc(C)c1OCC(=O)NC(Cc1ccccc1)C(CC(Cc1ccccc1)NC(=O)C(C(C)C)N1CCCNC1=O)OC(=O)CCC(=O)O (centres unmarked) [SLPV, Succinyl-lopinavir]
Reduction of uptake in the presence of linoleic acid (BeWo cells [1]; 40 μM linoleic acid (LA), BeWo cells, p<0.05): 34%

Effect of ABC transporter inhibitor MK571 on uptake, in words (BeWo cells [1]): slight increase in uptake
Effect of arachidonic acid on uptake, in words (BeWo cells [1]): no effect
Temperature dependence of uptake, in words (BeWo cells [1]): inhibited at reduced temperatures
Temperature dependence of uptake, in words (BeWo cells [1]; human, 10 minutes): significantly less than at 37 °C
Temperature dependence of uptake, in words ([5]; 4° C. vs 37° C., cytotrophoblasts): temperature-dependent
Uptake relative to uptake of LPV ([5]; human placental cytotrophoblasts, 37° C., after 24 hrs in culture): 10 fold
Stability in human plasma, in words (plasma esterases; 20 μM, human plasma from one healthy adult, 37° C., 18 hours): completely stable to plasma esterases
Temperature dependence of uptake, in words (BeWo cells [3]): temperature dependent
Rank order of uptake (BeWo cells [3]): GLPV>SLPV>DGLPV
SMILES: Cc1cccc(C)c1OCC(=O)NC(Cc1ccccc1)[C@H](CC(Cc1ccccc1)NC(=O)[C@H](C(C)C)N1CCCNC1=O)OC(=O)CCC(=O)O (some centres unmarked) [SLPV, Succinyl-lopinavir]
Extent of Uptake Inhibition (BeWo cells [1]; Cold (4° C.), BeWo cells): 62%
inhibition at 100 µM (BeWo cells [1]): -1%
inhibition at 250 µM (BeWo cells [1]): 7%
Extent of Uptake Inhibition (BeWo cells [1]; linoleic acid (40 mM), BeWo cells): 40%
Extent of Uptake Inhibition (BeWo cells [1]; valproic acid (1 mM), BeWo cells): 5%
